Results: patent publication EP0711558A1, “Compositions for topical application to skin, hair and nails” (UNILEVER PLC, priority 1994, dated 1996)
Where two headings read alike, the source gives them in different places.

Columns and labels:
[1] = system: keratinocytes; conditions: as shown by Bikle et al.; cited from earlier work
[2] = system: Normal human keratinocytes; experiment: Vitamin D3 metabolites' uptake by keratinocytes (cell associated radioactivity); assay type: in vitro ADME; conditions: for cell associated radioactivity: 60 picomolar; for rate of uptake by keratinocytes: Table 6, in words
Experimental: Vitamin D₃ Metabolites' Uptake:
Normal human keratinocytes were grown to confluence in Keratinocyte growth medium (KGM) containing 0.15 mM calcium. Medium was changed to fresh medium. The cells were then incubated in duplicate with 10,000 cpm (60 picomolar, or 25 picogram/ml medium) of 25-OH-D₃ or 1,25-(OH) ₂D₃ for various times (0 to 240 minutes). At different time intervals indicated in the Table below, the medium of appropriate wells were aspirated, and the wells were washed three times with a 0.2% bovine serum albumin solution in 50 mM Tris/0.15 M sodium chloride buffer pH 7.4. After the wash the cells in the wells were dissolved in 0.1 N sodium hydroxide, neutralized with 0. 1 N hydrochloric acid, mixed with 5 ml of scintillation fluid (Ecolume) and counted in a beta counter. The amount of cpm associated with the cells was calculated as the percent of total cpm added for each time point studied. Data in the table is expressed as cell associated radioactivity as % of total added. Each reported result is a mean of duplicate determinations.

[3] = system: Normal human keratinocytes; experiment: Rate of DNA synthesis in keratinocytes (3H-thymidine incorporation; a decrease indicates growth inhibition / differentiation); assay type: cell-based; conditions: for cell growth inhibition: Table 1 (image); for activity at 3 µM: 3 μM lipid alone, read-out: DNA synthesis, 0 nM 25-OH-D3
Experimental: Methodology Used for Determining the Rate of DNA Synthesis in Keratinocytes After Treatment With Various Actives
• 1. Normal human keratinocytes isolated from neonatal foreskins by trypsin treatment were grown in DME medium/10% fetal calf serum in the presence of irradiated 3T3 mouse fibroblasts for establishing dividing keratinocyte colonies. Keratinocytes were grown under the above condition until their third passage. • 2. For the experiments, third passage keratinocytes were plated into a serum-free keratinocyte growth medium (KGM; obtained from Clonetics Corporation, San Diego, CA) containing 0.15 mM calcium. 20,000 to 30,000 cells were plated into each well of 24 well cell culture plates and grown for 5 days, until the cells reach about 80% confluence. • 3. Medium was changed to fresh medium and the various test materials were added to the medium from an ethanolic stock solution (10 AM). The final ethanol concentration in the cultures was kept below 0.2%. Control cultures received no tested material but were dosed with 0.2% ethanol. Each compound or combination was tested in three separate wells. By 4PM, 1 uCi of ³H-thymidine (Amersham Corp., Sp activity 40 Ci/mmol) was added to the 1 ml medium in each well. The cells were incubated overnight and 24 hours later (10 AM next day) the amount of ³H-thymidine associated with the cellular DNA of keratinocytes was assessed as described below. • 4. The medium was aspirated, and the wells washed with 1 ml phosphate-buffered saline. The DNA and proteins of the cells in the plate were then precipitated by adding 1 ml of ice-cold 10% trichloroacetic acid (TCA). The plates were left on ice for 30 minutes to complete the precipitation process. TCA was then aspirated and each well was then washed four times with 5% TCA. The plates were then dried on a filter pad and the cells in the wells were dissolved in 0.5 ml of 0.1 N sodium hydroxide. The sodium hydroxide was then neutralized using 0.1 N hydrochloric acid and the solution (1 ml total volume) was then transferred to a scintillation vial. 100 ul samples from each vial were used for protein assay using BCA protein assay reagent obtained from Pierce Chemical Company. 8 ml of a scintillation fluid (Ecolume) was added to the rest of the solution in the vial, and the vials were counted in a scintillation counter to determine the amount of radioactivity in each vial. The DNA synthesis rate was then calculated as cpm ³H thymidine incorporated into total cellular DNA/microgram of cell protein for each individual well. Mean and standard deviation for each group was also calculated. […] All lipids listed in Tables 1-5 below were synthesized in-house. 25-OH-D₃ and 1,25-(OH)₂D₃ were obtained from Hoffman La Roche. Vitamin D ₃ was obtained from Sigma. • 6.

[4] = 0 minutes, mean of duplicate determinations
[5] = 100 nM, alone, 25-OH-D3 in two experiments, 1,25-(OH)2D3 in one experiment
[6] = 1000 nM, compound alone, consistently observed only at this concentration
[7] = Homo sapiens, Keratinocyte, 24 h, Table 5

C=C1/C(=C\C=C2/CCC[C@]3(C)[C@@H]([C@H](C)CCCC(C)(C)O)CC[C@@H]23)C[C@@H](O)C[C@@H]1O [1,25-(OH)2D3, 1,25-dihydroxycholecalciferol]
catabolism by keratinocytes [1]: catabolized to inactive metabolites rapidly
cell associated radioactivity [2, 4]: 0.8 % of total added
cell associated radioactivity ([2]; 2 minutes): 2.7 % of total added
cell associated radioactivity ([2]; 5 minutes): 4.2 % of total added
cell associated radioactivity ([2]; 10 minutes): 13.0 % of total added
cell associated radioactivity ([2]; 15 minutes): 10.0 % of total added
cell associated radioactivity ([2]; 30 minutes): 20.0 % of total added
cell associated radioactivity ([2]; 60 minutes): 15.6 % of total added
cell associated radioactivity ([2]; 120 minutes): 26.2 % of total added
cell associated radioactivity ([2]; 240 minutes): 30.8 % of total added
rate of uptake by keratinocytes [2]: rapidly taken up
cell growth inhibition [3, 5]: cell growth inhibition was also observed
cell growth inhibition [3, 6]: statistically significant cell growth inhibition

C=C1CC[C@H](O)C/C1=C/C=C1\CCC[C@]2(C)[C@@H]([C@H](C)CCCC(C)(C)O)CC[C@@H]12 [Formula 25-OH-D3, 25-hydroxycholecalciferol]
cell associated radioactivity [2, 4]: 2.5 % of total added
cell associated radioactivity ([2]; 2 minutes): 3.2 % of total added
cell associated radioactivity ([2]; 5 minutes): 0.3 % of total added
cell associated radioactivity ([2]; 10 minutes): 3.4 % of total added
cell associated radioactivity ([2]; 15 minutes): 8.3 % of total added
cell associated radioactivity ([2]; 30 minutes): 8.1 % of total added
cell associated radioactivity ([2]; 60 minutes): 6.2 % of total added
cell associated radioactivity ([2]; 120 minutes): 6.8 % of total added
cell associated radioactivity ([2]; 240 minutes): 9.8 % of total added
rate of uptake by keratinocytes [2]: substantially slower rate
activity at 0.001 µM ([3]; Homo sapiens, Keratinocyte, 24 h, 1 nM 25-OH-D3, no ceramide, read-out: DNA synthesis, 25-OH-D3 alone): 99.3 ± 1.91%
activity at 0.01 µM ([3]; Homo sapiens, Keratinocyte, 24 h, 10 nM 25-OH-D3, no ceramide, read-out: DNA synthesis, 25-OH-D3 alone): 97.2 ± 5.92%
activity at 0.1 µM ([3]; Homo sapiens, Keratinocyte, 24 h, 100 nM 25-OH-D3, no ceramide, read-out: DNA synthesis, 25-OH-D3 alone): 86.5 ± 5.47%
activity at 1 µM ([3]; Homo sapiens, Keratinocyte, 24 h, 1000 nM 25-OH-D3, no ceramide, read-out: DNA synthesis, 25-OH-D3 alone): 67.8 ± 5.92%
minimal effective concentration ([3]; Homo sapiens, Keratinocyte, 24 h, 25-OH-D3 employed alone, read-out: concentration of 25-OH-D3 at which inhibition of keratinocyte growth was observed): 0.1 to 1 µM
activity at 0.01 µM ([3]; Homo sapiens, Keratinocyte, 24 h, Table 4, 10 nM vitamin D3 or its metabolite, no ceramide, read-out: DNA synthesis, No ceramide): 95.3 ± 6.9%
activity at 0.1 µM ([3]; Homo sapiens, Keratinocyte, 24 h, Table 4, 100 nM vitamin D3 or its metabolite, no ceramide, read-out: DNA synthesis, No ceramide): 88.5 ± 7.2%
activity at 0.01 µM ([3]; Homo sapiens, Keratinocyte, 24 h, Table 5, 10 nM 25-OH-D3, No ceramide, read-out: DNA synthesis, 10 nM 25-OH-D3): 95.3 ± 6.9%
activity at 0.1 µM ([3]; Homo sapiens, Keratinocyte, 24 h, Table 5, 100 nM 25-OH-D3, No ceramide, read-out: DNA synthesis, 100 nM 25-OH-D3): 88.5 ± 7.2%
cell growth inhibition [3, 5]: cell growth inhibition was also observed
cell growth inhibition [3, 6]: statistically significant cell growth inhibition

CCCCCCCCCCCCCCCCN(CC(O)CO)C(C)=O (stereo not drawn) [neoceramide (Formula F), N-(2,3-dihydroxypropyl)-N-(hexadecyl)ethanamide]
activity at 3 µM [3, 7]: 81.1 ± 4.9%

CCCCCCCCCCCCCCCCN(CC(O)CO)C(=O)CCCCC (stereo not drawn) [neoceramide (Formula G), N-(2,3-dihydroxypropyl)-N-(hexadecyl)hexanamide]
activity at 3 µM [3, 7]: 103 ± 12.3%

CCCCCCCCCCCCCCCCN(CC(O)CO)C(=O)C(O)CCCCCC (stereo not drawn) [neoceramide (Formula H), N-(2,3-dihydroxypropyl)-N-(hexadecyl)-2-hydroxyoctanamide]
activity at 3 µM [3, 7]: 85.7 ± 0.9%

CCCCCCCCCCCCN(CC(O)CO)C(=O)C(O)CCCCCC (stereo not drawn) [neoceramide (Formula M), N-(2,3-dihydroxypropyl)-N-(dodecyl)-2-hydroxyoctnamide]
activity at 3 µM [3, 7]: 81.5 ± 6.4%

CCCCCCCCCCCCCCC(O)CN(CCO)C(=O)CCCCC (stereo not drawn) [pseudoceramide (Formula D)]
activity at 3 µM [3, 7]: 62 ± 12.8%

CCCCCCCCCCCCCCCCOCC(O)CN(CCO)C(C)=O (stereo not drawn) [pseudoceramide (Formula E)]
activity at 3 µM [3, 7]: 95.9 ± 22%

C=C1CC[C@H](O)C/C1=C/C=C1\CCC[C@]2(C)[C@@H]([C@H](C)CCCC(C)C)CC[C@@H]12 [vitamin D3, Vitamin D₃]
growth inhibition ([3]; vitamin D3 employed alone (Table 4)): does not show statistically significant growth inhibition
synergy with the ceramide in inhibiting keratinocyte growth ([3]; with ceramide of Formula A, even at 100 nM vitamin D3): did not show any synergy
